48 compounds from patent US20260026504A1, “COMPOUND […] STRUCTURE, APPLICATION, AND INSECTICIDE” (Anhui Shengfeng Biochemical Co., Ltd, priority 2022, published 2026) can be followed below.

For the assay, the system named is diamondback moth (Plutella xylostella) second instar larvae. The assay is described as follows: Toxicity to diamondback moth larvae by the leaf-dipping method. Type of assay: in vivo. As to conditions: Plutella xylostella, in Brassica oleracea, foliar, corrected mortality grade, 1 ppm, cabbage leaf dip. As for the experimental part:
Determining the toxicity activity of part of compounds on diamondback moth (Plutella xylostella) instar larvae by the leafdipping method.
The test agents of the compounds in Table 2 were weighed out accurately with an electronic analytical balance, and the original drug was dissolved in a 10000 ppm solution with dimethyl sulfoxide as the solvent and then diluted with 0.1% of Triton solution to 1 ppm and 0.25 ppm solutions. Taking the cabbage not contacted with the liquid medicine, and cutting the leaves into 6 cm-diameter circular leaves. Soaking the leaves in the prepared liquid medicine for 15 seconds, taking out and drying, and placing the leaves into 6 cm culture dishes, wherein 1 cabbage leaf is placed in each culture dish. The same standard second instar larvae were placed in petri dishes with 10 heads per dish and 4 replicates per concentration for a total of 40 heads. After inoculation, the culture dish is placed in a constant-temperature culture chamber with the temperature of 25±1° C. and the illumination period of 16 (D) to 8 (L) h, and the number of dead and live larvae is investigated after 48 h and 72 h. A blank and a control of compound K1 and compound K2 were also provided.
The mortality is calculated according to the following formula 1, then the corrected mortality is calculated according to the formula 2, and finally the classification is carried out according to the corrected mortality value and the rating standard shown in the table 2, and the specific results are shown in the tables 3 and 4.
mortality %=(number of dead insects/total number of insects)×100% Equation 1;
corrected mortality %=[(treatment-control mortality)/(1-control mortality)]×100% Equation 2.

The mark [1] stands for this setting: 48 h, 48 h, read-out: mortality (1 ppm) 48 h.
[2] abbreviates: 72 h, 72 h, read-out: mortality (1 ppm) 72 h.

Read-outs that look alike come from different tables or passages of the source.

Turning to `Cc1cc(C2=NOC(c3cc(Cl)cc(Cl)c3)(C(F)(F)F)C2)ccc1C(=O)Nc1cn[nH]c1` (stereo not drawn) [Compound 1], the mortality (commonly the percentage killed) at 1 ppm runs as follows: under setting [1], 50 to 70%; under setting [2], 70 to 80%. With `Cc1cc(C2=NOC(c3cc(Cl)cc(Cl)c3)(C(F)(F)F)C2)ccc1C(=O)Nc1cnn(C)c1` (stereo not drawn) [Compound 2], the mortality at 1 ppm by setting is: under setting [1], 80 to 90%; under setting [2], 100%. As for `CCn1cc(NC(=O)c2ccc(C3=NOC(c4cc(Cl)cc(Cl)c4)(C(F)(F)F)C3)cc2C)cn1` (stereo not drawn) [Compound 3], the mortality at 1 ppm was in the range of 70 to 80% under setting [1] and 90 to 100% under setting [2]. Regarding `CCCn1cc(NC(=O)c2ccc(C3=NOC(c4cc(Cl)cc(Cl)c4)(C(F)(F)F)C3)cc2C)cn1` (stereo not drawn) [Compound 4], the mortality at 1 ppm was in the range of 50 to 70% under setting [1] and 50 to 70% under setting [2]. Regarding `Cc1cc(C2=NOC(c3cc(Cl)cc(Cl)c3)(C(F)(F)F)C2)ccc1C(=O)Nc1cnn(C(C)C)c1` (stereo not drawn) [Compound 5], the mortality at 1 ppm by setting is: under setting [1], 90 to 100%; under setting [2], 100%. With `Cc1cc(C2=NOC(c3cc(Cl)cc(Cl)c3)(C(F)(F)F)C2)ccc1C(=O)Nc1cnn(CC(F)(F)F)c1` (stereo not drawn) [Compound 7], the mortality at 1 ppm under setting [2] was in the range of 80 to 90%.

As to `Cc1cc(C2=NOC(c3cc(Cl)cc(Cl)c3)(C(F)(F)F)C2)ccc1C(=O)Nc1cnn(CC(F)F)c1` (stereo not drawn) [Compound 8], the mortality at 1 ppm runs as follows: under setting [1], 50 to 70%; under setting [2], 80 to 90%. For `Cc1cc(C2=NOC(c3cc(Cl)cc(Cl)c3)(C(F)(F)F)C2)ccc1C(=O)Nc1cnn(CCF)c1` (stereo not drawn) [Compound 9], under setting [2], the mortality at 1 ppm was in the range of 80 to 90%. On to `Cc1cc(C2=NOC(c3cc(Cl)cc(Cl)c3)(C(F)(F)F)C2)ccc1C(=O)Nc1cnn(CCC(F)(F)F)c1` (stereo not drawn) [Compound 10], for which the mortality at 1 ppm reads like this: under setting [1], 50 to 70%; under setting [2], 100%. With `Cc1cc(C2=NOC(c3cc(Cl)cc(Cl)c3)(C(F)(F)F)C2)ccc1C(=O)Nc1cnn(CCCF)c1` (stereo not drawn) [Compound 11], the mortality at 1 ppm is 50 to 70% under setting [1] and 100% under setting [2]. Turning to `COCn1cc(NC(=O)c2ccc(C3=NOC(c4cc(Cl)cc(Cl)c4)(C(F)(F)F)C3)cc2C)cn1` (stereo not drawn) [Compound 12], the mortality at 1 ppm is 50 to 70% under setting [1] and 50 to 70% under setting [2]. As to `CCC(C)n1cc(NC(=O)c2ccc(C3=NOC(c4cc(Cl)cc(Cl)c4)(C(F)(F)F)C3)cc2C)cn1` (stereo not drawn) [Compound 16], under setting [2], the mortality at 1 ppm lay within 70 to 80%.

As to `Cc1cc(C2=NOC(c3cc(Cl)cc(Cl)c3)(C(F)(F)F)C2)ccc1C(=O)Nc1cnn(C2CC2)c1` (stereo not drawn) [Compound 23], the mortality at 1 ppm was 100% under setting [1] and 100% under setting [2]. For `Cc1cc(C2=NOC(c3cc(Cl)cc(Cl)c3)(C(F)(F)F)C2)ccc1C(=O)Nc1cnn(C2CCC2)c1` (stereo not drawn) [Compound 24], the mortality at 1 ppm under setting [2] lay in the range of 50 to 70%.

Consider `C=CCn1cc(NC(=O)c2ccc(C3=NOC(c4cc(Cl)cc(Cl)c4)(C(F)(F)F)C3)cc2C)cn1` (stereo not drawn) [Compound 27], for which the mortality at 1 ppm under setting [1] fell in the range of 50 to 70% and the mortality at 1 ppm under setting [2] lay within 70 to 80%. Regarding `C#CCn1cc(NC(=O)c2ccc(C3=NOC(c4cc(Cl)cc(Cl)c4)(C(F)(F)F)C3)cc2C)cn1` (stereo not drawn) [Compound 28], the mortality at 1 ppm reads like this: under setting [1], 80 to 90%; under setting [2], 100%.

`Cc1cc(C2=NOC(c3cc(Cl)cc(Cl)c3)(C(F)(F)F)C2)ccc1C(=O)Nc1cnn(CC2CC2)c1` (stereo not drawn) [Compound 30]: the mortality at 1 ppm under setting [2] fell in the range of 50 to 70%. Take `Cc1cc(C2=NOC(c3cc(Cl)cc(Cl)c3)(C(F)(F)F)C2)ccc1C(=O)Nc1cnn(CC2CCCCC2)c1` (stereo not drawn) [Compound 33]: the mortality at 1 ppm under setting [2] was 50 to 70%. With `COC(Cn1cc(NC(=O)c2ccc(C3=NOC(c4cc(Cl)cc(Cl)c4)(C(F)(F)F)C3)cc2C)cn1)OC` (stereo not drawn) [Compound 36], the mortality at 1 ppm under setting [2] was 50 to 70%.

For `Cc1cc(C2=NOC(c3cc(Cl)cc(Cl)c3)(C(F)(F)F)C2)ccc1C(=O)Nc1cnn(C2CCOC2)c1` (stereo not drawn) [Compound 39], the mortality at 1 ppm under setting [2] fell in the range of 50 to 70%. On to `Cc1cc(C2=NOC(c3cc(Cl)cc(Cl)c3)(C(F)(F)F)C2)ccc1C(=O)Nc1cnn(C2CCOCC2)c1` (stereo not drawn) [Compound 40], for which the mortality at 1 ppm reads like this: under setting [1], 50 to 70%; under setting [2], 50 to 70%. Regarding `Cc1cc(C2=NOC(c3cc(Cl)cc(Cl)c3)(C(F)(F)F)C2)ccc1C(=O)Nc1cnn(-c2ccccc2F)c1` (stereo not drawn) [Compound 42], under setting [2], the mortality at 1 ppm lay in the range of 50 to 70%. With `Cc1cc(C2=NOC(c3cc(Cl)cc(Cl)c3)(C(F)(F)F)C2)ccc1C(=O)Nc1cnn(-c2ccccc2Br)c1` (stereo not drawn) [Compound 44], the mortality at 1 ppm under setting [2] was 50 to 70%.

In the case of `Cc1cc(C2=NOC(c3cc(Cl)cc(Cl)c3)(C(F)(F)F)C2)ccc1C(=O)Nc1cnn(-c2cccc(F)c2)c1` (stereo not drawn) [Compound 47], the mortality at 1 ppm under setting [2] lay within 50 to 70%. With `COc1cccc(-n2cc(NC(=O)c3ccc(C4=NOC(c5cc(Cl)cc(Cl)c5)(C(F)(F)F)C4)cc3C)cn2)c1` (stereo not drawn) [Compound 51], the mortality at 1 ppm under setting [2] fell in the range of 50 to 70%. Same read-out and setting: with `Cc1cc(C2=NOC(c3cc(Cl)cc(Cl)c3)(C(F)(F)F)C2)ccc1C(=O)Nc1cnn(-c2ccc(F)cc2)c1` (stereo not drawn) [Compound 52] the figure was 50 to 70%. The same measure, in the same setting: to `CC(=O)n1cc(NC(=O)c2ccc(C3=NOC(c4cc(Cl)cc(Cl)c4)(C(F)(F)F)C3)cc2C)cn1` (stereo not drawn) [Compound 58] belongs 50 to 70%; to `CCC(=O)n1cc(NC(=O)c2ccc(C3=NOC(c4cc(Cl)cc(Cl)c4)(C(F)(F)F)C3)cc2C)cn1` (stereo not drawn) [Compound 59], 50 to 70%; to `CCCC(=O)n1cc(NC(=O)c2ccc(C3=NOC(c4cc(Cl)cc(Cl)c4)(C(F)(F)F)C3)cc2C)cn1` (stereo not drawn) [Compound 60], 50 to 70%. On to `Cc1cc(C2=NOC(c3cc(Cl)cc(Cl)c3)(C(F)(F)F)C2)ccc1C(=O)Nc1cnn(C(=O)C2CCC2)c1` (stereo not drawn) [Compound 64], for which, under setting [2], the mortality at 1 ppm lay in the range of 50 to 70%. As for `Cc1cc(C2=NOC(c3cc(Cl)cc(Cl)c3)(C(F)(F)F)C2)ccc1C(=O)Nc1cnn(C(=O)N(C)C)c1` (stereo not drawn) [Compound 67], the mortality at 1 ppm under setting [2] fell in the range of 90 to 100%. In the case of `CCN(CC)C(=O)n1cc(NC(=O)c2ccc(C3=NOC(c4cc(Cl)cc(Cl)c4)(C(F)(F)F)C3)cc2C)cn1` (stereo not drawn) [Compound 68], under setting [2], the mortality at 1 ppm fell in the range of 50 to 70%. In the case of `Cc1cc(C2=NOC(c3cc(Cl)cc(Cl)c3)(C(F)(F)F)C2)ccc1C(=O)Nc1cnn(S(C)(=O)=O)c1` (stereo not drawn) [Compound 69], the mortality at 1 ppm under setting [2] lay within 50 to 70%. Still for that read-out and setting: to `CCCS(=O)(=O)n1cc(NC(=O)c2ccc(C3=NOC(c4cc(Cl)cc(Cl)c4)(C(F)(F)F)C3)cc2C)cn1` (stereo not drawn) [Compound 71] belongs 70 to 80%. Regarding `Cc1cc(C2=NOC(c3cc(Cl)cc(Cl)c3)(C(F)(F)F)C2)ccc1C(=O)Nc1cnn(S(=O)(=O)C(C)C)c1` (stereo not drawn) [Compound 72], the mortality at 1 ppm under setting [2] fell in the range of 50 to 70%. `Cc1cc(C2=NOC(c3cc(Cl)cc(Cl)c3)(C(F)(F)F)C2)ccc1C(=O)Nc1cnn(S(=O)(=O)c2ccccc2)c1` (stereo not drawn) [Compound 73]: under setting [2], the mortality at 1 ppm fell in the range of 50 to 70%. As for `Cc1cc(C2=NOC(c3cc(Cl)cc(Cl)c3)(C(F)(F)F)C2)ccc1C(=O)Nc1cnn(S(=O)(=O)C2CCCCC2)c1` (stereo not drawn) [Compound 75], the mortality at 1 ppm was in the range of 90 to 100% under setting [1] and 90 to 100% under setting [2]. As for `CCn1nc(C)c(NC(=O)c2ccc(C3=NOC(c4cc(Cl)cc(Cl)c4)(C(F)(F)F)C3)cc2C)c1C` (stereo not drawn) [Compound 97], under setting [2], the mortality at 1 ppm was in the range of 80 to 90%. In the case of `CCCn1nc(C)c(NC(=O)c2ccc(C3=NOC(c4cc(Cl)cc(Cl)c4)(C(F)(F)F)C3)cc2C)c1C` (stereo not drawn) [Compound 98], the mortality at 1 ppm under setting [2] was 50 to 70%.

As for `CCC(CC)n1nc(C)c(NC(=O)c2ccc(C3=NOC(c4cc(Cl)cc(Cl)c4)(C(F)(F)F)C3)cc2C)c1C` (stereo not drawn) [Compound 102], the mortality at 1 ppm under setting [2] lay within 50 to 70%. For the compound `Cc1cc(C2=NOC(c3cc(Cl)cc(Cl)c3)(C(F)(F)F)C2)ccc1C(=O)Nc1c(C)nn(Cc2ccccc2)c1C` (stereo not drawn) [Compound 104], the mortality at 1 ppm under setting [2] is 50 to 70%. Consider `Cc1cc(C2=NOC(c3cc(Cl)c(F)c(Cl)c3)(C(F)(F)F)C2)ccc1C(=O)Nc1cn[nH]c1` (stereo not drawn) [Compound 123], for which the mortality at 1 ppm was 90 to 100% under setting [1] and 100% under setting [2].

As to `Cc1cc(C2=NOC(c3cc(Cl)c(F)c(Cl)c3)(C(F)(F)F)C2)ccc1C(=O)Nc1cnn(C)c1` (stereo not drawn) [Compound 124], the mortality at 1 ppm under setting [1] was in the range of 80 to 90% and the mortality at 1 ppm under setting [2] is 100%. Turning to `CCn1cc(NC(=O)c2ccc(C3=NOC(c4cc(Cl)c(F)c(Cl)c4)(C(F)(F)F)C3)cc2C)cn1` (stereo not drawn) [Compound 125], the mortality at 1 ppm was 100% under setting [1] and 100% under setting [2]. For the compound `Cc1cc(C2=NOC(c3cc(Cl)c(F)c(Cl)c3)(C(F)(F)F)C2)ccc1C(=O)Nc1cnn(C2CC2)c1` (stereo not drawn) [Compound 129], the mortality at 1 ppm by setting is: under setting [1], 100%; under setting [2], 100%. `Cc1cc(C2=NOC(c3cc(Cl)c(F)c(Cl)c3)(C(F)(F)F)C2)ccc1C(=O)Nc1cnn(C2CCC2)c1` (stereo not drawn) [Compound 130]: the mortality at 1 ppm is 90 to 100% under setting [1] and 100% under setting [2].

Regarding `Cc1cc(C2=NOC(c3cc(Cl)c(F)c(Cl)c3)(C(F)(F)F)C2)ccc1C(=O)Nc1cnn(C2CCCC2)c1` (stereo not drawn) [Compound 131], the mortality at 1 ppm is 80 to 90% under setting [1] and 100% under setting [2]. `Cc1cc(C2=NOC(c3cc(Cl)c(F)c(Cl)c3)(C(F)(F)F)C2)ccc1C(=O)Nc1cnn(C2CCCCC2)c1` (stereo not drawn) [Compound 132]: the mortality at 1 ppm reads like this: under setting [1], 50 to 70%; under setting [2], 100%.
